Results published in patent publication US20140221964A1, “SYSTEMS AND METHODS FOR LOCAL DRUG DELIVERY TO KIDNEYS” (priority 2011, published 2014).

Test system: Spontaneously hypertensive rats
Experiment: Blood pressure and heart rate by tail-cuff after chronic local drug delivery to the renal capsule via implanted minipumps
[1] = local delivery to renal capsule by minipump, tail-cuff, over time

Clc1cccc(Cl)c1N=C1NCCN1 [clonidine]
dosage resulting in the blood-pressure effect, compared with oral dosage expected for a similar result (local delivery to renal capsule): significantly less than an oral dosage | heart rate (side effect) (local delivery to renal capsule by minipump): not reduced | diastolic blood pressure [1]: reduced | mean blood pressure [1]: reduced | systolic blood pressure [1]: reduced
